From patent US10351553B2, “Potassium channel modulators” (Cadent Therapeutics, Inc., priority 2017, dated 2019)
In brackets after ≈: the same amount, converted by molar mass.

Assays:
[1] = Metabolic stability in liver microsomes, mouse; assay type: in vitro ADME; conditions: % remaining at 1 hour; 1 μM
Description: (§1) Metabolic stability profiling of the compounds was performed in liver microsomes. In this assay, test compound is incubated with liver microsomes in the presence of NADPH for 2 time points at 37° C. At the end of incubation, reaction is quenched with acetonitrile containing internal standard and the parent compound remaining is determined by LC-MS/MS. Conditions used in the assay are summarized below. […], 37° C. • Test concentration: 1 μM in 0.02% DMSO at pH 7.4 (n=2) • NADPH concentration in assay: 1 mM • Liver microsome protein concentration in assay: 0.5 mg/ml • Analysis: LC-MS/MS • Data reported: % Parent Compound Remaining (% PCR) • Reference compounds for high and low clearance are included • Species tested: mouse, rat, dog, monkey, and human

CYP1A2 = target: T1, CYP1A2 (Homo sapiens, UniProt P05177); assay: CYP inhibition in human liver microsome, CYP1A2 (Phenacetin); assay type: in vitro ADME
T1 construct: Matrix: Human Liver Microsome (Invitrogen, life technologies); tissue Invitrogen, life technologies; host or cells: human liver microsomes
T1 sequence (P05177 1-516): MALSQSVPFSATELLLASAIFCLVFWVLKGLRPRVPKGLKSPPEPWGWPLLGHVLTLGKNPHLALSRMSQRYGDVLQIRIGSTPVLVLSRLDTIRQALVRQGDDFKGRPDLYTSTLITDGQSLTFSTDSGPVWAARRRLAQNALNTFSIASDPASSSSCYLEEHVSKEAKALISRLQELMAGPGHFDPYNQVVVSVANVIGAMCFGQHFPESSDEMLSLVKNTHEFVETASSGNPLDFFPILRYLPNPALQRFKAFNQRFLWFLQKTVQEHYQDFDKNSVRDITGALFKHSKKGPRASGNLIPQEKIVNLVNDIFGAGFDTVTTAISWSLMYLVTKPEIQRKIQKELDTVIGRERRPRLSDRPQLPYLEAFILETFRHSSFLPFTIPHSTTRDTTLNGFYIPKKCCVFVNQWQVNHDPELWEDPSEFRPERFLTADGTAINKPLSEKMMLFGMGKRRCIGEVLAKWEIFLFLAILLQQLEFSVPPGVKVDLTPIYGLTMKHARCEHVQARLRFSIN
Description: (§2) Compounds described herein were tested for CYP inhibition across 5 isoforms (3A4, 2D6, 2C9, 2C19 & 1A2). In this assay, CYP isoform specific substrates are incubated with human liver microsome (HLM) in the presence of test compounds, and metabolite formation is determined. Percentage inhibition of metabolite formation at different concentrations of test compound is calculated and IC50 is determined. Conditions used in the assay are summarized below. Results are shown in Table 2. • Test drug (Inhibitor) Concentration: 8 different concentrations (100 μM to 0.005 μM) • Matrix: Human Liver Microsome (Invitrogen, life technologies) • Specific probe substrates will be used for the isoforms as given below: • CYP3A4: Midazolam • CYP2D6: Bufuralol • CYP2C9: Diclofenac • CYP2C19: Mephynitoin • CYP1A2: Phenacetin • Cofactors: NADPH (1 mM final in assay) • Sample Analysis: LC-MS/MS (metabolites) • Specific reference inhibitors included in all assays (Ketoconazole/Quinidine/Sulphaphenazole/Ticlopidine/Furafylline) • Buffer: Potassium Phosphate Buffer (100 mM) pH 7.4 • DMSO level in assay: 0.1% • Data analysis: % Inhibition over control

[2] = Aqueous (kinetic) solubility, shake-flask, phosphate buffer pH 7.4; assay type: physicochemical; conditions: 23 °C, kinetic from dmso stock, phosphate buffer pH 7.4, 16 hours at room temperature
Description: Aqueous solubility (kinetic solubility) tests of the compounds were performed in phosphate buffer saline (pH 7.4) measured by shake-flask method. In this assay, DMSO stock solution of test compound is added to buffer followed by equilibration (shaking), filtration and determination of soluble amount by HPLC-UV Conditions used in the assay are summarized below.

[3] = Metabolic stability in liver microsomes, human; assay type: in vitro ADME; conditions: % remaining at 1 hour; 1 μM
Description: as §1

CYP3A4 = target: T2, CYP3A4 (Homo sapiens, UniProt P08684); assay: CYP inhibition in human liver microsome, CYP3A4 (Midazolam); assay type: in vitro ADME
T2 construct: Matrix: Human Liver Microsome (Invitrogen, life technologies); tissue Invitrogen, life technologies; host or cells: human liver microsomes
T2 sequence (P08684 whole entry): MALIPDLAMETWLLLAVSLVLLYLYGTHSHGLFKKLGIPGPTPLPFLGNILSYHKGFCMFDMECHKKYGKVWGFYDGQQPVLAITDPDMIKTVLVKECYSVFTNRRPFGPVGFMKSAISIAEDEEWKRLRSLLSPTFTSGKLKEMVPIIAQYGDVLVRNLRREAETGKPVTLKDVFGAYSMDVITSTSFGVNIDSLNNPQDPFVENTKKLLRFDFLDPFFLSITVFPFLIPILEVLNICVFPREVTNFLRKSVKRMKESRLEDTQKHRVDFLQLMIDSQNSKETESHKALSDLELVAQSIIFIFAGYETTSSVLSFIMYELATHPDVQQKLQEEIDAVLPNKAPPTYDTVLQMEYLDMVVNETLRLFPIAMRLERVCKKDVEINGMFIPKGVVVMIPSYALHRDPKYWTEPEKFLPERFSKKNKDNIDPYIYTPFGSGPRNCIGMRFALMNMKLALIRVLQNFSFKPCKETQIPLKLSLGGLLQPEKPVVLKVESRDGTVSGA
Description: as §2

[4] = Oral bioavailability in rat; assay type: in vivo; conditions: male, Sprague Dawley, plasma; 10 mg/kg PO, 0.5 mg/kg IV in rat
From the text: Oral bioavailability data was collected in rat as follows.

[5] = Brain free fraction by equilibrium dialysis in rat brain tissue homogenate; assay type: in vitro ADME; conditions: 10% rat brain tissue homogenate, Tables 2 and 3
Description: The extent to which compounds modulate SK2 channels in vivo is expressed as % SK2 SC100, which is the ratio of the concentration of the drug free in the brain to the measured potency of the compound on the SK2 channel. It is calculated as follows: CFB=CMB×BFF, where CMB is the concentration of compound measured by liquid chromatography mass spectrometry from brains harvested immediately following tremor recording (Table 1, “Measured Brain Concentration”). CFB is the amount of free compound not complexed with protein and therefore free to interact with the SK2 channel (Table 1, “Calculated Free Brain Concentration”). BFF is average free fraction of compound as measured by equilibrium dialysis in separate experiments (1 uM test concentration incubated in 10% rat brain tissue homogenate for 5 hours at 37° C.) (Table 1, “Brain Free Fraction”). Free drug in brain available to interact with SK2 channels (CFB) is arrived at by multiplying the measured total brain level (CMB) by the average free fraction (BFF).

[6] = Metabolic stability in liver microsomes, monkey; assay type: in vitro ADME; conditions: % remaining at 1 hour; 1 μM
Description: as §1

SK2 channels = target: T3, SK2 channels (Homo sapiens, UniProt Q9H2S1); assay: Whole-cell patch-clamp of SK2 current in HEK293 cells expressing SK2 channels; assay type: cell-based; conditions: for SK2 potency (SC100): Table 2, concentration that produces doubling of channel current, averages from later experiments
T3 construct: expressed in transfected cells; host or cells: HEK293
Description: The biological activity was determined as follows. The ionic current through small-conductance Ca^2+-activated K^+ channels (SK channels, subtype 2) was measured using the whole-cell configuration of the patch-clamp technique in a patch-clamp set-up using HEK293 tissue culture cells expressing SK2 channels as described in Hougaard et al., British Journal of Pharmacology 151, 655-665, May 8, 2007, the entire teachings of which are incorporated herein by reference. In one aspect, a compound is defined to be an SK Positive Allosteric Modulator (PAM) if the compound increases current in this assay, for example, if the SC100 value of the compound is less than or equal to 10 μM as determined by this assay. The SC100 value is defined to be the concentration of compound that increases the basal current by 100%.

[7] = Metabolic stability in liver microsomes, dog; assay type: in vitro ADME; conditions: % remaining at 1 hour; 1 μM
Description: as §1

[8] = Metabolic stability in liver microsomes, rat; assay type: in vitro ADME; conditions: % remaining at 1 hour; 1 μM
Description: as §1

CYP2D6 = target: T4, CYP2D6 (Homo sapiens, UniProt P10635); assay: CYP inhibition in human liver microsome, CYP2D6 (Bufuralol); assay type: in vitro ADME
T4 construct: Matrix: Human Liver Microsome (Invitrogen, life technologies); tissue Invitrogen, life technologies; host or cells: human liver microsomes
T4 sequence (P10635 whole entry): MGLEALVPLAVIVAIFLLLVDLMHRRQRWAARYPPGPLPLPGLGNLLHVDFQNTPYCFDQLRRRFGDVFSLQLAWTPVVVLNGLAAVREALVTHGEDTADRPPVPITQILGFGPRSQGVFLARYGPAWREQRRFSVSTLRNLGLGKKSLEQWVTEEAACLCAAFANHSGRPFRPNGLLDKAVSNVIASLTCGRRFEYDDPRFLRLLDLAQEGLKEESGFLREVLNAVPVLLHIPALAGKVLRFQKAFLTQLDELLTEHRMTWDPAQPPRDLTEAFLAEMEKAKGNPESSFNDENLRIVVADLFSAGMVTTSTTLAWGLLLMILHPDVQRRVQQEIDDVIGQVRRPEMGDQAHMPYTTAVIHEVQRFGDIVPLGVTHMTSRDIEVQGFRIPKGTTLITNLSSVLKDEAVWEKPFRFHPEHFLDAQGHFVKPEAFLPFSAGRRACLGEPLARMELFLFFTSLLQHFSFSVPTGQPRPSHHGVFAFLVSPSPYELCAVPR
Description: as §2

Compound	Liver microsome stability, Mouse [1]	IC50 (CYP1A2)	solubility kinetic at 16 h [2]	Liver microsome stability, Human [3]	IC50 (CYP3A4)	bioavailability [4]	fraction unbound at 5 h, 1 uM [5]	Liver microsome stability, Monkey [6]	SK2 potency (SC100) (SK2 channels)	Liver microsome stability, Dog [7]	Liver microsome stability, Rat [8]	IC50 (CYP2D6)	Measured SK2 SC100 (SK2 channels; Table 1, concentration that increases the basal current by 100%)
Cc1cc(NC2CCCCC2)nc(-n2nc(C)cc2C)n1 [Comparator A, reference compound]	1%	0.64 µM	17 µg/mL (≈ 59.6 µM)	50%	> 10 µM	5%	0.012	1%	1.38 µM	2%	1%	0.79 µM	
Cc1ccn(-c2nc(NC3CCC(F)(F)CC3)cc(N3CCOCC3)n2)n1 [Compound 1, N-(4,4-difluorocyclohexyl)-2-(3-methyl-1H-pyrazol-1-yl)-6-morpholinopyrimidin-4-amine]	47%	> 10 µM	74 µg/mL (≈ 196 µM)	84%	> 10 µM	81%	0.061	46%	0.4 µM	54%	60%	> 10 µM	0.5 µM
